Measurements as given in patent US20240199546A1, “INHIBITORS OF SOLUTE CARRIER FAMILY 6A MEMBER 19 (SLC6A19) AND METHODS OF USE THEREOF” (Maze Therapeutics, Inc., priority 2022, published 2024).

Biological target: T1, human SLC6A19 and TMEM27 (Homo sapiens, UniProt Q695T7)
T1 construct: expressed in transfected cells
T1 sequence (Q695T7 1-634): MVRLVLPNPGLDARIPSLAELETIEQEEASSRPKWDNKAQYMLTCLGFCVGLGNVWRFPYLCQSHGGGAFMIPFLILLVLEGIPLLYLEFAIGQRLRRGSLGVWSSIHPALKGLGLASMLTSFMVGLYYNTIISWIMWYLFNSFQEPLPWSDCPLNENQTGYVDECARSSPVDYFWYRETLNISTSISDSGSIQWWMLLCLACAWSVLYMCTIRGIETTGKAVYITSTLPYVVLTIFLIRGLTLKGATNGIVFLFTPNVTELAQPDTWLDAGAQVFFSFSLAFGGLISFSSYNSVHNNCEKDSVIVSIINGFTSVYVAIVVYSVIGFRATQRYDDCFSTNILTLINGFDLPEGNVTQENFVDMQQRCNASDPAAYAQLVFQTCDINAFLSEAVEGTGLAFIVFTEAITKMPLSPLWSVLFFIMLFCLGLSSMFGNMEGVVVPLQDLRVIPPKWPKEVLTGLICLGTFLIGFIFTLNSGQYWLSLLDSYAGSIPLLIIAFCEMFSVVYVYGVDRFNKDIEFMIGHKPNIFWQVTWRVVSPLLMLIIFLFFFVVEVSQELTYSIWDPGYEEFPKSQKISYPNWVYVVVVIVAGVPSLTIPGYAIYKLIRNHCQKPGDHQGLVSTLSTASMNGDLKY
T1 sequence (Q9HBJ8 15-222 partner): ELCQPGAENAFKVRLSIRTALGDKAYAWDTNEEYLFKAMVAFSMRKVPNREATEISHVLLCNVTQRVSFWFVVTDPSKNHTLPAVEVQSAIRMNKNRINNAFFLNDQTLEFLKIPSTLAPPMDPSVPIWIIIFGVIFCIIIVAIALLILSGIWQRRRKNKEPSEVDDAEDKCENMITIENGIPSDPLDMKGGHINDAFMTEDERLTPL
Test: Radiolabelled (3H) leucine uptake in CHO cells with doxycycline-inducible expression of human SLC6A19 and TMEM27 (Example B-1)
Format: cell-based
Conditions: CHO cells with doxycycline-inducible expression of human SLC6A19 and TMEM27, read-out: SLC6A19_Radioligand Uptake Assay IC50
Procedure, shortened: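 CHO cells were induced with doxycycline for 18 h at 37 °C, washed in HBSS, then exposed to compounds for 1 h: 8-point, 3-fold dilutions in duplicate, 0.5% DMSO final. Uptake measured by scintillation counting after 2 h shaking. Activity normalized with positive control as 0% and DMSO as 100%.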

Question: How did the IC50 turn out when `Cc1cc(COc2cc3[nH]c(CNC(=O)C4OCCC4(F)F)cc3cc2Cl)on1` (centres unmarked) [Compound 306, N-((5-chloro-6-((3-methylisoxazol-5-yl)methoxy)-1H-indol-2-yl)methyl)-3,3-difluorotetrahydrofuran-2-carboxamide] was run?
Answer: 633 nM

Question: How did the IC50 turn out when `O=C(NCc1cc2cc(Cl)c(OCc3ccon3)cc2[nH]1)C1CCCC1` [Compound 492, N-((5-chloro-6-(isoxazol-3-ylmethoxy)-1H-indol-2-yl)methyl)cyclopentanecarboxamide] was run?
Answer: 359 nM

Question: `COCCOCC(=O)NCc1cc2cc(Cl)c(OCc3cc(C)no3)cc2[nH]1` [Compound 299, N-((5-chloro-6-((3-methylisoxazol-5-yl)methoxy)-1H-indol-2-yl)methyl)-2-(2-methoxyethoxy)acetamide] was tested. Which IC50 did it give?
Answer: > 9060 nM

Question: `CC1(C(=O)NCc2cc3cc(Cl)c(OCc4sncc4Cl)cc3[nH]2)CC1` [Compound 325, N-((5-chloro-6-((4-chloroisothiazol-5-yl)methoxy)-1H-indol-2-yl)methyl)-1-methylcyclopropane-1-carboxamide] was tested. Which IC50 did it give?
Answer: 3730 nM

Question: For `Cc1cc(COc2cc3[nH]c(CNC(=O)N4CCCC4)cc3cc2F)no1` [Compound 117, N-((5-fluoro-6-((5-methylisoxazol-3-yl)methoxy)-1H-indol-2-yl)methyl)pyrrolidine-1-carboxamide], which IC50 is on record?
Answer: 267 nM

Question: How did the IC50 turn out when `Cc1cc(COc2cc3[nH]c(CNC(=O)C4(C)COC4)cc3cc2Cl)on1` [Compound 273, N-((5-chloro-6-((3-methylisoxazol-5-yl)methoxy)-1H-indol-2-yl)methyl)-3-methyloxetane-3-carboxamide] was run?
Answer: 567 nM

Question: `CCC(=O)NCc1cc2c(F)cc(OCc3cscn3)cc2[nH]1` [Compound 515, N-((4-fluoro-6-(thiazol-4-ylmethoxy)-1H-indol-2-yl)methyl)propionamide] was tested. Which IC50 did it give?
Answer: 116 nM

Question: For `O=C(NCc1cc2cc(F)c(OCc3ccon3)cc2[nH]1)C1(C(F)(F)F)CC1` [Compound 139, N-((5-fluoro-6-(isoxazol-3-ylmethoxy)-1H-indol-2-yl)methyl)-1-(trifluoromethyl)cyclopropane-1-carboxamide], which IC50 is on record?
Answer: 310 nM

Question: Which IC50 does the source give for `Cc1cc(COc2cc3[nH]c(CNC(=O)C(C)(F)F)cc3cc2F)on1` [Compound 441, 2,2-difluoro-N-((5-fluoro-6-((3-methylisoxazol-5-yl)methoxy)-1H-indol-2-yl)methyl)propanamide] here?
Answer: 95.6 nM

Question: Which IC50 does the source give for `C[C@H]1CCN(C(=O)NCc2cc3cc(F)c(OCc4ccon4)cc3[nH]2)C1` [Compound 382, (S)-N-((5-fluoro-6-(isoxazol-3-ylmethoxy)-1H-indol-2-yl)methyl)-3-methylpyrrolidine-1-carboxamide] here?
Answer: 420 nM

Question: For `Cc1cc(COc2cc3[nH]c(CNC(=O)[C@@H](C)O)cc3cc2Cl)on1` [Compound 256, (R)-N-((5-chloro-6-((3-methylisoxazol-5-yl)methoxy)-1H-indol-2-yl)methyl)-2-hydroxypropanamide], which IC50 is on record?
Answer: 140 nM

Question: How did the IC50 turn out when `Cc1cc(COc2cc3[nH]c(CNC(=O)C4(F)CC4)cc3cc2Cl)on1` [Compound 571, N-((5-chloro-6-((3-methylisoxazol-5-yl)methoxy)-1H-indol-2-yl)methyl)-1-fluorocyclopropane-1-carboxamide] was run?
Answer: 161 nM

Question: For `O=C(NCc1cc2cc(Cl)c(CCc3ccon3)cc2[nH]1)N1CCC1` [Compound 595, N-((5-chloro-6-(2-(isoxazol-3-yl)ethyl)-1H-indol-2-yl)methyl)azetidine-1-carboxamide], which IC50 is on record?
Answer: 240 nM

Question: For `O=C(NCc1cc2cc(F)c(OCc3cscn3)cc2[nH]1)C(F)F` [Compound 567, 2,2-difluoro-N-((5-fluoro-6-(thiazol-4-ylmethoxy)-1H-indol-2-yl)methyl)acetamide], which IC50 is on record?
Answer: 182 nM

Question: `CC(=O)NCc1cc2c(F)cc(OCc3ccon3)cc2[nH]1` [Compound 453, N-((4-fluoro-6-(isoxazol-3-ylmethoxy)-1H-indol-2-yl)methyl)acetamide] was tested. Which IC50 did it give?
Answer: 859 nM

Question: For `CC1(C(=O)NCc2cc3cc(C4(F)CC4)c(OCc4cscn4)cc3[nH]2)CC1` [Compound 656, N-((5-(1-fluorocyclopropyl)-6-(thiazol-4-ylmethoxy)-1H-indol-2-yl)methyl)-1-methylcyclopropane-1-carboxamide], which IC50 is on record?
Answer: 8470 nM

Question: How did the IC50 turn out when `CCc1cc2cc(CNC(=O)C3(C)CC3)[nH]c2cc1OCc1cscn1` [Compound 202, N-((5-ethyl-6-(thiazol-4-ylmethoxy)-1H-indol-2-yl)methyl)-1-methylcyclopropane-1-carboxamide] was run?
Answer: 1560 nM

Question: With `O=C(CO)NCc1cc2cc(Cl)c(OCc3cscn3)cc2[nH]1` [Compound 244, N-((5-chloro-6-(thiazol-4-ylmethoxy)-1H-indol-2-yl)methyl)-2-hydroxyacetamide] as the compound, how does the IC50 read?
Answer: 391 nM

Question: For `CNC(=O)NCc1cc2cc(F)c(OCc3cc(C)on3)cc2[nH]1` [Compound 212, 1-((5-fluoro-6-((5-methylisoxazol-3-yl)methoxy)-1H-indol-2-yl)methyl)-3-methylurea], which IC50 is on record?
Answer: 429 nM

Question: How did the IC50 turn out when `Cc1cc(COc2cc3[nH]c(CNC(=O)[C@@H]4C[C@@H]4F)cc3cc2Cl)on1` [Compound 540, (1S,2S)-N-((5-chloro-6-((3-methylisoxazol-5-yl)methoxy)-1H-indol-2-yl)methyl)-2-fluorocyclopropane-1-carboxamide] was run?
Answer: 131 nM

Question: How did the IC50 turn out when `O=C(NCc1cc2cc(F)c(OCc3cscn3)cc2[nH]1)C1CCO1` (centres unmarked) [Compound 264, N-((5-fluoro-6-(thiazol-4-ylmethoxy)-1H-indol-2-yl)methyl)oxetane-2-carboxamide] was run?
Answer: 243 nM

Question: `COCC(=O)NCc1cc2cc(F)c(OCc3cc(C)no3)cc2[nH]1` [Compound 263, N-((5-fluoro-6-((3-methylisoxazol-5-yl)methoxy)-1H-indol-2-yl)methyl)-2-methoxyacetamide] was tested. Which IC50 did it give?
Answer: 174 nM

Question: For `CC(=O)NCc1cc2cc(Cl)c(OCc3cocn3)cc2[nH]1` [Compound 206, N-((5-chloro-6-(oxazol-4-ylmethoxy)-1H-indol-2-yl)methyl)acetamide], which IC50 is on record?
Answer: 217 nM

Question: `[2H]C([2H])([2H])c1cc(COc2cc3[nH]c(CNC(=O)C4(C)CC4)cc3cc2Cl)no1` [Compound 663, N-((5-chloro-6-((5-(methyl-d3)isoxazol-3-yl)methoxy)-1H-indol-2-yl)methyl)-1-methylcyclopropane-1-carboxamide] was tested. Which IC50 did it give?
Answer: 134 nM

Question: Which IC50 does the source give for `CC(=O)NCc1cc2cc(Cl)c(OCCOC(F)(F)F)cc2[nH]1` [Compound 338, N-((5-chloro-6-(2-(trifluoromethoxy)ethoxy)-1H-indol-2-yl)methyl)acetamide] here?
Answer: 159 nM

Question: For `CC(NC(=O)C1(C)CC1)c1cc2cc(Cl)c(OCc3ccon3)cc2[nH]1` (racemic) [Compound 395, (S)-N-(1-(5-chloro-6-(isoxazol-3-ylmethoxy)-1H-indol-2-yl)ethyl)-1-methylcyclopropane-1-carboxamide and (R)-N-(1-(5-chloro-6-(isoxazol-3-ylmethoxy)-1H-indol-2-yl)ethyl)-1-methylcyclopropane-1-carboxamide], which IC50 is on record?
Answer: 2140 nM

Question: `CC1(C(=O)NCc2cc3cc(CCC#N)c(OCc4ccon4)cc3[nH]2)CC1` [Compound 642, N-((5-(2-cyanoethyl)-6-(isoxazol-3-ylmethoxy)-1H-indol-2-yl)methyl)-1-methylcyclopropane-1-carboxamide] was tested. Which IC50 did it give?
Answer: 2740 nM

Question: `O=C(NCc1cc2cc(Cl)c(OCc3cscn3)cc2[nH]1)N1CCC1CO` (racemic) [Compound 365, (S)-N-((5-chloro-6-(thiazol-4-ylmethoxy)-1H-indol-2-yl)methyl)-2-(hydroxymethyl)azetidine-1-carboxamide and (R)-N-((5-chloro-6-(thiazol-4-ylmethoxy)-1H-indol-2-yl)methyl)-2-(hydroxymethyl)azetidine-1-carboxamide] was tested. Which IC50 did it give?
Answer: 991 nM

Question: `Cc1cc(CNc2cc3[nH]c(CNC(=O)C4(C)CC4)cc3cc2Cl)no1` [Compound 451, N-((5-chloro-6-(((5-methylisoxazol-3-yl)methyl)amino)-1H-indol-2-yl)methyl)-1-methylcyclopropane-1-carboxamide] was tested. Which IC50 did it give?
Answer: 237 nM

Question: Which IC50 does the source give for `COCC(=O)NCc1cc2cc(Cl)c(OCc3cscn3)cc2[nH]1` [Compound 270, N-((5-chloro-6-(thiazol-4-ylmethoxy)-1H-indol-2-yl)methyl)-2-methoxyacetamide] here?
Answer: 110 nM

Question: How did the IC50 turn out when `CC1(C(=O)NCc2cc3cc(Cl)c(OCc4cccnn4)cc3[nH]2)CC1` [Compound 334, N-((5-chloro-6-(pyridazin-3-ylmethoxy)-1H-indol-2-yl)methyl)-1-methylcyclopropane-1-carboxamide] was run?
Answer: 519 nM

Question: Which IC50 does the source give for `CCc1cc2cc(CNC(=O)C3(C)CC3)[nH]c2cc1OCc1ccon1` [Compound 61, N-((5-ethyl-6-(isoxazol-3-ylmethoxy)-1H-indol-2-yl)methyl)-1-methylcyclopropane-1-carboxamide] here?
Answer: 297 nM
